Target: furin (Homo sapiens, UniProt P09958)
Test: fluorogenic furin protease assay (BPS Bioscience kit), IC50 in triplicate
Assay type: biochemical
Settings: read-out: Biological Activity ^2 [IC50; μM] ^3 or % Inhibition ^4

furin, sequence (P09958 108-794): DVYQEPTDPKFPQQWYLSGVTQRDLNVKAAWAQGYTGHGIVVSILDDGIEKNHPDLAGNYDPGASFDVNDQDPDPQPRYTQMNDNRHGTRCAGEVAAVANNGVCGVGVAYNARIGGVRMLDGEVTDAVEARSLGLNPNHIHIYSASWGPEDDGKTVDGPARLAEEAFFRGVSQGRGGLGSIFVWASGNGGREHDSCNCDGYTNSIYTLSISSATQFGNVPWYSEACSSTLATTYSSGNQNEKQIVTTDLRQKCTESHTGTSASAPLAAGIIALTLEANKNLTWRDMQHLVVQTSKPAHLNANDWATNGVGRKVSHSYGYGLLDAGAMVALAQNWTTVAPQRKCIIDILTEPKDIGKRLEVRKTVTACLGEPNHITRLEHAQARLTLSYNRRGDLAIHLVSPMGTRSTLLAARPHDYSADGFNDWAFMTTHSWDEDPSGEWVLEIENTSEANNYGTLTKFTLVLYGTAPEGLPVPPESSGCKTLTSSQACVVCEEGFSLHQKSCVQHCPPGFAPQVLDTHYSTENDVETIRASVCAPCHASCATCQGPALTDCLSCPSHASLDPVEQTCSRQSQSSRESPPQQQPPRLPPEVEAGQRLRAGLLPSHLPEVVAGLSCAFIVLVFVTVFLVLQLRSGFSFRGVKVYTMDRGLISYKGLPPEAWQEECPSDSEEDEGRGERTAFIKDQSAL

IC50: 17.6 ± 2.29 µM
SMILES: COc1ccccc1/C=C1/SC(=S)N(CCC(=O)Nc2ccc(S(=O)(=O)Nc3nccs3)cc2)C1=O [compound 4, N-[4-(1,3-thiazol-2-ylaminosulfonyl)phenyl]-3-{(E)-5-[(2-methoxyphenyl)methylene]-4-oxo-2-thioxo-1,3-thiazolidin-3-yl}propionamide]

From paper PMC11859198, “Identification of Furin Protease Small-Molecule Inhibitor with a 1,3-Thiazol-2-ylaminosulfonyl Scaffold” (Pharmaceuticals, 2025)
